Measurements from US11021481B2, “Substituted isoindolin-1-ones and 2,3-dihydro-1h-pyrrolo[3,4-c]pyridin-1-ones as HPK1 antagonists” (Nimbus Saturn, Inc., priority 2019, dated 2021).
Where a name gives a salt, the structure may show the parent alone.

biological target: HPK1 (Homo sapiens (Human), UniProt Q92918); experiment: HPK1 biochemical enzyme assay (microfluidic mobility shift assay); conditions: 1.5 nM HPK1, ATP 1 mM final, 30 min preincubation, 60 min at RT, Caliper EZ Reader; read-out: HPK1 1000UMATP caliper IC50
Sequence (Q92918 whole entry): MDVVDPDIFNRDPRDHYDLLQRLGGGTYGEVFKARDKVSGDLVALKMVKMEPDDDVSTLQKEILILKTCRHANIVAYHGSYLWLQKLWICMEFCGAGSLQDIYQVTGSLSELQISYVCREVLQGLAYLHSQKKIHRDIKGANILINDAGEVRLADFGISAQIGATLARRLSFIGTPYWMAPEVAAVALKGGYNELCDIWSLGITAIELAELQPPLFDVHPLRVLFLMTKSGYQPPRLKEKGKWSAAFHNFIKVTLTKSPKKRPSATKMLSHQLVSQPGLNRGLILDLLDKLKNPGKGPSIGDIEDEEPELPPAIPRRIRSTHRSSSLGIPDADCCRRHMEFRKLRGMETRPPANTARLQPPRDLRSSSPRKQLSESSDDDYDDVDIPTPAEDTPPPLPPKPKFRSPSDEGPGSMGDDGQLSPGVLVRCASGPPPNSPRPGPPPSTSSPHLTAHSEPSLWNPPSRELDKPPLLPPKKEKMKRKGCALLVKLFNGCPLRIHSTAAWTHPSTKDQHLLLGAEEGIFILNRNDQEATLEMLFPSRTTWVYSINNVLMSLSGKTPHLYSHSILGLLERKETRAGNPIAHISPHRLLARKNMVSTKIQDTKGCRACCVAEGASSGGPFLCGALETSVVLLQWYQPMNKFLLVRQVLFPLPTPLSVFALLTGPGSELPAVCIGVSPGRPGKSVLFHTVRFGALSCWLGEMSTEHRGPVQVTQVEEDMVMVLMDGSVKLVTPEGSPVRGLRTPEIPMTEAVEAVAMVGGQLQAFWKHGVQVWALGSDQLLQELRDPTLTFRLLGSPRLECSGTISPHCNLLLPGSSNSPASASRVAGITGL
Procedure, shortened: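 Mobility shift readout of HPK1 activity after a 60 min RT reaction with 1 mM ATP, 1 μM substrate and 5 mM MgCl2. Enzyme/substrate mix was first exposed to compounds for 30 min, using ten-point curves topping at 3 μM final.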

| Compound | IC50 [nM] |
| --- | --- |
| O=C1NCc2c(-c3cnc4cc(F)ccn34)ccc(Nc3ccc(C4CCOC4)c(CNCC4CC4)n3)c21 (stereo not drawn) [I-849, 7-[[6-[(cyclopropylmethylamino)methyl]-5-tetrahydrofuran-3-yl-2-pyridyl]amino]-4-(7-fluoroimidazo [1,2-a]pyridin-3-yl)isoindolin-1-one Formic acid salt] | < 100 |
| CN(C)Cc1nc(Nc2ccc(-c3cnc4cnccn34)c3c2C(=O)NC3)ccc1C1CCOCC1 [I-850, 7-[[6-[(dimethylami-no)methyl]-5-tetrahydropyran-4-yl-2-pyridyl]amino]-4-imidazo[1,2-a]pyrazin-3-yl-isoindolin-1-one] | < 100 |
| CN(C)Cc1cc(C2CCCO2)cc(Nc2ccc(-c3cnc4cc(F)ccn34)c3c2C(=O)NC3)n1 (stereo not drawn) [I-852, 7-((6-((dimethylamino)-methyl)-4-(tetrahydrofuran-2-yl)pyridin-2-yl)amino)-4-(7-fluoroimidazo [1,2-a]pyridin-3-yl)isoindolin-1-one Formate salt] | < 100 |
| (R)-7-((5-(4-hydroxypiperidin-1-yl)pyridin-2-yl)amino)-3-methyl-4-(1-methyl-1H-pyrrolo[2,3-b]pyridin-4-yl)isoindolin-1-one [I-287] | < 100 |
| (R)-7-((6- ((dimethylamino)- methyl)-5- (tetrahydrofuran- 3-yl)pyridin- 2-yl)amino)-4- (8-methylimidazo [1,2-a]pyridin- 3-yl)isoindolin- 1-one [I-696] | < 100 |
| (R)-7-((6- ((dimethylamino)- methyl)-5-(2- (methoxymeth- yl)morpholino )pyridin-2- yl)amino)-4-(7- fluoroimidazo [1,2-a]pyridin- 3-yl)isoindolin- 1-one [I-711] | < 100 |
| (S)-7-((5-(4-hydroxypiperidin-1-yl)pyridin-2-yl)amino)-3-methyl-4-(1-methyl-1H-pyrrolo[2,3-b]pyridin-4-yl)isoindolin-1-one [I-286] | > 1000 |
| (S)-7-((6- ((dimethylamino)- methyl)-5- (tetrahydrofuran- 3-yl)pyridin- 2-yl)amino)-4- (1-methyl-1H- indol-4-yl)- 2,3-dihydro- 1H-pyrrolo[3,4- c]pyridin-1-one [I-540] | < 100 |
| (S)-7-((6- ((dimethylamino)- methyl)-5- (tetrahydrofuran- 3-yl)pyridin- 2-yl)amino)-4- (8-methylimidazo [1,2-a]pyridin- 3-yl)isoindolin- 1-one [I-695] | < 100 |
